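Each compound was tested at five concentrations against cells in 96-well plates for 48 hours. GI50 = concentration required for 50% inhibition of growth. At the TGI there is no net growth.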
Legend:
Experiment in all cases: NCI anticancer screen, dose series, 48 h
KM12 colon = system: KM12 colon
MDA-MB-435 = system: MDA-MB-435
DU-145 prostate = system: DU-145 prostate
COLO 205 colon = system: COLO 205 colon
UACC-62 melanoma = system: UACC-62 melanoma
HT29 colon = system: HT29 colon
M14 melanoma = system: M14 melanoma
SNB-75 CNS = system: SNB-75 CNS
HCT-116 colon = system: HCT-116 colon
SR leukemia = system: SR leukemia

Row | SMILES | TGI (KM12 colon) [µM] | TGI (MDA-MB-435) [µM] | TGI (DU-145 prostate) [µM] | TGI (COLO 205 colon) [µM] | TGI (UACC-62 melanoma) [µM] | TGI (HT29 colon) [µM] | TGI (M14 melanoma) [µM] | TGI (SNB-75 CNS) [µM] | TGI (HCT-116 colon) [µM] | TGI (SR leukemia) [µM] | GI50 (HCT-116 colon) [µM] | GI50 (KM12 colon) [µM] | GI50 (MDA-MB-435) [µM] | GI50 (DU-145 prostate) [µM] | GI50 (COLO 205 colon) [µM] | GI50 (UACC-62 melanoma) [µM] | GI50 (HT29 colon) [µM] | GI50 (M14 melanoma) [µM] | GI50 (SNB-75 CNS) [µM] | GI50 (SR leukemia) [µM]
1 | CN(C)c1ccc2cc3ccc(N(C)C)cc3nc2c1 | 1.85 | 13 | 4.29 | 22.8 | 28.2 | 1.81 | 8.15 | 11.9 |  |  |  |  |  |  |  |  |  |  |  | 
2 | CN(C)C(=S)/N=c1\ss/c(=N\C(=S)N(C)C)n1Cc1ccco1 | > 100 |  |  | > 100 | > 100 |  | > 100 | > 100 | > 100 | > 100 |  |  |  |  |  |  |  |  |  | 
3 | CN(C(=O)C12C3C4C1C1C2C3C41C(O)C(C)(C)C)C(C)(C)C (stereo not drawn) | > 100 |  |  | > 100 | > 100 | > 100 | > 100 | > 100 | > 100 |  |  |  |  |  |  |  |  |  |  | 
4 | O=C(Oc1ccccc1Cl)c1ccccc1Nc1cccc(C(F)(F)F)c1 | 44.6 | 32.3 | 89 | > 100 | 42.9 | > 100 | 38.9 | > 100 | 40.9 |  | 14.7 | 19.6 | 11.7 | 31.8 | 28 | 16.9 | 30 | 13.9 | 43.1 | 
5 | O=S1c2ccccc2NC(c2ccc3ccccc3c2)CC1c1ccccc1 (stereo not drawn) | 41.7 |  |  | 74.4 | > 100 | 49.6 | > 100 | 86.6 |  |  |  |  |  |  |  |  |  |  |  | 
6 | C[N+](C)(C)CC(CC(=O)[O-])C1CC1 (stereo not drawn) | > 100 |  |  | > 100 | > 100 | > 100 | > 100 | > 100 |  |  |  |  |  |  |  |  |  |  |  | 
7 | O=C(O)c1cn(C2CC2)c2cc(N3CCNCC3)c(F)cc2c1=O | > 100 | > 100 | > 100 | > 100 | > 100 | > 100 | > 100 |  | > 100 |  | > 100 | > 100 | > 100 | > 100 | > 100 | > 100 | > 100 | > 100 |  | 
8 | O=c1ccn(C2(CO)C=C(CO)C(O)C2O)c(=O)[nH]1 (stereo not drawn) | > 25.7 |  |  | > 25.7 | > 25.7 |  | > 25.7 | > 25.7 | > 25.7 | > 25.7 |  |  |  |  |  |  |  |  |  | 
9 | CCOc1cc2c(=O)oc3c(OC)ccc4ccc(c1OC)c2c43 | > 100 | > 100 | > 100 | > 100 | > 100 | > 100 | > 100 | > 100 | 20.4 |  |  |  |  |  |  |  |  |  |  | 
10 | CCCC(=O)c1ccc(=O)n(C)c1 | > 100 |  |  | > 100 | > 100 | > 100 | > 100 | > 100 | > 100 | > 100 |  |  |  |  |  |  |  |  |  | 
11 | COc1cc(C(=O)O/N=C(\N)Cc2cccc3ccccc23)cc(OC)c1OC | 22.1 | 6.42 | 23.7 | 28.1 | 6.73 | 38.3 |  | 15.6 | 13 |  | 3.13 | 9.12 | 2.4 | 11.4 | 12.2 | 2.49 | 15.7 |  | 2.8 | 
12 | COc1ccc(/C=C\c2cc(OC)c(OC)c(OC)c2)cc1OCC(=O)Nc1nc2ccccc2s1 | > 100 |  | > 100 | > 49.5 | > 100 | > 48.9 | > 100 | > 100 | > 100 | > 100 | 0.0439 | 0.0646 |  | 0.14 | 3.26 | 0.0587 | 2.72 | 0.0527 | 0.109 | 0.0363
13 | Nc1c(C(=O)NC23CC4CC(CC(C4)C2)C3)[n+]([O-])c2ccccc2[n+]1[O-] | > 100 |  |  | > 100 | > 100 | > 100 | > 100 | > 100 |  |  |  |  |  |  |  |  |  |  |  | 
14 | COc1ccc(OC(C)C(=O)O)c2c1CCCC2=O (stereo not drawn) | > 100 |  |  | > 100 | > 100 | > 100 | > 100 | > 100 | > 100 | > 100 |  |  |  |  |  |  |  |  |  | 
15 | CC(C)CN1CC(C)C(=O)NC1=O (stereo not drawn) | > 100 |  |  | > 100 | > 100 | > 100 |  |  |  | > 100 |  |  |  |  |  |  |  |  |  | 
16 | O=C(Cc1csc2nc(-c3ccc(Br)cc3)cn12)N/N=C/c1ccc(Cl)cc1Cl | > 100 | > 100 | > 100 | > 100 | 67.7 | > 100 | > 100 | > 100 | 36.8 |  | 17.1 | 38.2 | 31.4 | 26.3 | 75 | 23.3 | 40.8 | 32.9 | 37.5 | 
17 | COc1ccc(N=Nc2c(-c3ccccc3)nn(C(=O)CC(=O)Nc3ccccc3Cl)c2-c2ccccc2)cc1 | > 100 |  |  | > 100 | > 100 | > 100 | > 100 | > 100 | > 100 | 11.3 |  |  |  |  |  |  |  |  |  | 

Row | SMILES | TGI (KM12 colon) [µM] | TGI (MDA-MB-435) [µM] | TGI (DU-145 prostate) [µM] | TGI (COLO 205 colon) [µM] | TGI (UACC-62 melanoma) [µM] | TGI (HT29 colon) [µM] | TGI (M14 melanoma) [µM] | TGI (SNB-75 CNS) [µM] | TGI (HCT-116 colon) [µM] | TGI (SR leukemia) [µM] | GI50 (HCT-116 colon) [µM] | GI50 (KM12 colon) [µM] | GI50 (MDA-MB-435) [µM] | GI50 (DU-145 prostate) [µM] | GI50 (COLO 205 colon) [µM] | GI50 (UACC-62 melanoma) [µM] | GI50 (HT29 colon) [µM] | GI50 (M14 melanoma) [µM] | GI50 (SNB-75 CNS) [µM] | GI50 (SR leukemia) [µM]
18 | NC(CCc1ncc(-c2ccccc2)s1)C(=O)O (stereo not drawn) | > 100 |  |  | > 100 | > 100 | > 100 | > 100 | > 100 | > 100 |  |  |  |  |  |  |  |  |  |  | 
19 | COC1C(CO)OC(n2c3c(Cl)cccc3c3c4c(c5c6cccc(Cl)c6[nH]c5c32)C(=O)NC4=O)C(O)C1O (stereo not drawn) | > 58.6 | > 100 | 3.29 | 61.4 | 0.257 | > 47.3 | 10.7 | 5.87 | 0.781 |  |  |  |  |  |  |  |  |  |  | 
20 | O=C1CC(c2ccsc2)c2snc(-c3ccc(Cl)cc3)c2N1 (stereo not drawn) | > 100 | 0.977 | > 100 | 2.57 | > 100 | > 100 | > 100 | 9.71 | > 100 |  | 0.515 | 0.385 | 0.26 | 2.68 | 0.527 | 0.859 | 0.4 | 0.804 | 1.71 | 
21 | CCOc1ccc(NCC2CC/C(=C\c3ccc(Cl)cc3)C2=O)cc1 (stereo not drawn) | > 44 |  |  | > 52.5 | > 64.3 | > 56.2 | 50.6 | > 76.5 | > 62.9 | > 50.4 |  |  |  |  |  |  |  |  |  | 
22 | Cc1ccc(/C=C/C(=O)c2ccc([N+](=O)[O-])cc2)cc1 | > 100 |  |  | > 100 | > 100 | > 100 | > 100 | > 100 | > 100 | > 100 |  |  |  |  |  |  |  |  |  | 
23 | Cc1cccc(C(C)C)c1NC(=O)CCl | > 100 |  |  | > 100 | 63.2 | > 100 | > 100 | > 100 | > 100 | > 100 |  |  |  |  |  |  |  |  |  | 
24 | C=C1CCC2C(C)(CO)C(O)CCC2(C)C1C/C=C1/CCOC1=O (stereo not drawn) | > 100 |  |  | > 100 | > 100 | > 100 | > 100 | > 100 | > 100 | > 100 |  |  |  |  |  |  |  |  |  | 
25 | O=C(c1nn(-c2ccc(Cl)cc2)cc1O)n1nc(C(F)(F)F)cc1-c1ccccc1 | > 100 | > 100 | > 100 | > 44.2 | > 71.1 | > 83.8 | > 52.2 | > 100 | > 100 |  | 1.91 | 5.09 | 3.38 | 8.47 | 2.97 | 2.12 | 4.07 | 3.69 | 0.816 | 
26 | O=C1CCNC(=O)NC1 | > 100 |  |  | > 100 | > 100 | > 100 | > 100 | > 100 | > 100 | > 100 |  |  |  |  |  |  |  |  |  | 
27 | O=C1c2cccc3c(Cl)ccc(c23)C(=O)N1CCCN1CCN(CCCN2C(=O)c3cccc4c(Cl)ccc(c34)C2=O)CC1 | > 100 |  |  | > 100 | > 100 | > 100 | > 100 | > 100 | > 100 |  |  |  |  |  |  |  |  |  |  | 
28 | CCC(C)c1cccc(C)c1NC(=O)C(=O)Cc1nc2ccccc2s1 (stereo not drawn) | > 100 |  |  | > 100 | > 100 | > 100 | > 100 | > 100 | > 100 |  |  |  |  |  |  |  |  |  |  | 
29 | c1ccc2c(c1)Sc1ccccc1N2C1CN2CCC1CC2 (stereo not drawn) | 33.9 |  |  | 34.5 | 34.5 | 53.9 |  | 25.4 | 28.8 |  |  |  |  |  |  |  |  |  |  | 
30 | O=C(/C=C/c1ccccc1O)c1cccc2ccccc12 | > 100 |  |  | > 68.6 | > 100 | > 100 | > 100 | > 100 | > 69.7 | > 100 |  |  |  |  |  |  |  |  |  | 
31 | O=C1CCCC(O)=C1SC1=C(O)CCCC1=O | > 100 |  |  | > 100 | > 100 | > 100 | > 100 | > 100 | > 100 |  |  |  |  |  |  |  |  |  |  | 
32 | CCOC(=O)c1ccc(N(C=O)CCC(=O)CCl)cc1 | 15.4 | 0.37 | 13.9 | 0.838 | 3.69 | 1.18 | 1.5 | 13.6 | 1.73 |  | 0.0342 | 0.4 | 0.0908 | 0.366 | 0.315 | 0.524 | 0.186 | 0.0553 | 0.997 | 
33 | CN1C(=O)CCC1c1ccc2c(c1)oc(=O)n2C (stereo not drawn) | > 100 |  |  | > 100 | > 100 | > 100 | > 100 | > 100 | > 100 |  |  |  |  |  |  |  |  |  |  | 
34 | CCOC(=O)C(=O)Nc1ccccc1OCC | > 100 |  |  |  | > 100 | > 100 | > 100 |  | > 100 |  |  |  |  |  |  |  |  |  |  | 

Reference: PubChem BioAssay (NCI)
